# Data published in ChEMBL document CHEMBL1629634, “Postantibiotic effect of tigecycline against 14 gram-positive organisms” (Antimicrob Agents Chemother, 2009).
# Assays:
# [1] = tested on: Streptococcus pneumoniae; experiment: Antibacterial activity against penicillin-intermediate Streptococcus pneumoniae by macrodilution method; format: functional
# [2] = tested on: Staphylococcus aureus; experiment: Antibacterial activity against vancomycin-intermediate methicillin-resistant Staphylococcus aureus assessed as post-antibiotic sub-MIC effect at 0.2 times MIC concentration pretreated with 6 times MIC concentration for 1 hr followed by 1:1000 dilution by viable plate count method; format: functional
# [3] = tested on: Escherichia coli; experiment: Antibacterial activity against Escherichia coli assessed as post-antibiotic sub-MIC effect at 0.2 times MIC concentration pretreated with 10 times MIC concentration for 1 hr followed by 1:1000 dilution by viable plate count method; format: functional
# [4] = tested on: Acinetobacter baumannii; experiment: Antibacterial activity against Acinetobacter baumannii assessed as post-antibiotic sub-MIC effect at 0.2 times MIC concentration pretreated with 6 times MIC concentration for 1 hr followed by 1:1000 dilution by viable plate count method; format: functional
# [5] = tested on: Streptococcus pneumoniae; experiment: Antibacterial activity against penicillin-susceptible Streptococcus pneumoniae assessed as post-antibiotic sub-MIC effect at 0.3 times MIC concentration pretreated with 10 times MIC concentration for 1 hr followed by 1:1000 dilution by viable plate count method; format: functional
# [6] = tested on: Staphylococcus aureus; experiment: Antibacterial activity against vancomycin-sensitive methicillin-resistant Staphylococcus aureus assessed as post-antibiotic sub-MIC effect at 0.3 times MIC concentration pretreated with 10 times MIC concentration for 1 hr followed by 1:1000 dilution by viable plate count method; format: functional
# [7] = tested on: Staphylococcus aureus; experiment: Antibacterial activity against vancomycin-sensitive methicillin-resistant Staphylococcus aureus assessed as post-antibiotic sub-MIC effect at 0.3 times MIC concentration pretreated with 6 times MIC concentration for 1 hr followed by 1:1000 dilution by viable plate count method; format: functional
# [8] = tested on: Staphylococcus aureus; experiment: Antibacterial activity against vancomycin-intermediate methicillin-resistant Staphylococcus aureus assessed as post-antibiotic sub-MIC effect at 0.3 times MIC concentration pretreated with 10 times MIC concentration for 1 hr followed by 1:1000 dilution by viable plate count method; format: functional
# [9] = tested on: Escherichia coli; experiment: Antibacterial activity against Escherichia coli assessed as post-antibiotic sub-MIC effect at 0.3 times MIC concentration pretreated with 10 times MIC concentration for 1 hr followed by 1:1000 dilution by viable plate count method; format: functional
# [10] = tested on: Klebsiella pneumoniae; experiment: Antibacterial activity against Klebsiella pneumoniae assessed as post-antibiotic sub-MIC effect at 0.3 times MIC concentration pretreated with 10 times MIC concentration for 1 hr followed by 1:1000 dilution by viable plate count method; format: functional
# [11] = tested on: Streptococcus pneumoniae; experiment: Antibacterial activity against penicillin-intermediate Streptococcus pneumoniae assessed as sub-MIC effect at 0.4 times MIC concentration incubated for 1 hr by viable plate count method; format: functional
# [12] = tested on: Haemophilus influenzae; experiment: Antibacterial activity against amoxicillin, clavulanate-resistant Haemophilus influenzae expressing beta-lactamase assessed as sub-MIC effect at 0.4 times MIC concentration incubated for 1 hr by viable plate count method; format: functional
# [13] = tested on: Acinetobacter baumannii; experiment: Antibacterial activity against multidrug-resistant Acinetobacter baumannii producing OXA-24 and OXA-51 beta-lactamases assessed as sub-MIC effect at 0.4 times MIC concentration incubated for 1 hr by viable plate count method; format: functional
# [14] = tested on: Streptococcus pneumoniae; experiment: Antibacterial activity against penicillin-susceptible Streptococcus pneumoniae assessed as post-antibiotic sub-MIC effect at 0.4 times MIC concentration pretreated with 10 times MIC concentration for 1 hr followed by 1:1000 dilution by viable plate count method; format: functional
# [15] = tested on: Staphylococcus aureus; experiment: Antibacterial activity against vancomycin-sensitive methicillin-resistant Staphylococcus aureus assessed as post-antibiotic sub-MIC effect at 0.4 times MIC concentration pretreated with 6 times MIC concentration for 1 hr followed by 1:1000 dilution by viable plate count method; format: functional
# [16] = tested on: Enterococcus faecalis; experiment: Antibacterial activity against vancomycin-sensitive Enterococcus faecalis assessed as post-antibiotic sub-MIC effect at 0.4 times MIC concentration pretreated with 10 times MIC concentration for 1 hr followed by 1:1000 dilution by viable plate count method; format: functional
# [17] = tested on: Staphylococcus aureus; experiment: Antibacterial activity against vancomycin-intermediate methicillin-resistant Staphylococcus aureus assessed as post-antibiotic sub-MIC effect at 0.3 times MIC concentration pretreated with 6 times MIC concentration for 1 hr followed by 1:1000 dilution by viable plate count method; format: functional
# [18] = tested on: Enterococcus faecalis; experiment: Antibacterial activity against vancomycin-sensitive Enterococcus faecalis assessed as post-antibiotic sub-MIC effect at 0.3 times MIC concentration pretreated with 10 times MIC concentration for 1 hr followed by 1:1000 dilution by viable plate count method; format: functional
# [19] = tested on: Acinetobacter baumannii; experiment: Antibacterial activity against multidrug-resistant Acinetobacter baumannii producing OXA-24 and OXA-51 beta-lactamases assessed as sub-MIC effect at 0.2 times MIC concentration incubated for 1 hr by viable plate count method; format: functional
# [20] = tested on: Staphylococcus aureus; experiment: Antibacterial activity against vancomycin-intermediate methicillin-resistant Staphylococcus aureus assessed as sub-MIC effect at 0.2 times MIC concentration incubated for 1 hr by viable plate count method; format: functional
# [21] = tested on: Acinetobacter baumannii; experiment: Antibacterial activity against Acinetobacter baumannii assessed as post antibiotic effect at 10 times MIC concentration incubated for 1 hr measured after 1:1000 dilution by viable plate count method; format: functional
# [22] = tested on: Enterobacter cloacae; experiment: Antibacterial activity against Enterobacter cloacae assessed as post antibiotic effect at 10 times MIC concentration incubated for 1 hr measured after 1:1000 dilution by viable plate count method; format: functional
# [23] = tested on: Klebsiella pneumoniae; experiment: Antibacterial activity against Klebsiella pneumoniae assessed as post antibiotic effect at 2 times MIC concentration incubated for 1 hr measured after 1:1000 dilution by viable plate count method; format: functional
# [24] = tested on: Enterococcus faecalis; experiment: Antibacterial activity against vancomycin-resistant Enterococcus faecalis assessed as post antibiotic effect at 10 times MIC concentration incubated for 1 hr measured after 1:1000 dilution by viable plate count method; format: functional
# [25] = tested on: Enterococcus faecalis; experiment: Antibacterial activity against vancomycin-sensitive Enterococcus faecalis assessed as post antibiotic effect at 10 times MIC concentration incubated for 1 hr measured after 1:1000 dilution by viable plate count method; format: functional
# [26] = tested on: Staphylococcus aureus; experiment: Antibacterial activity against vancomycin-intermediate methicillin-resistant Staphylococcus aureus assessed as post antibiotic effect at 10 times MIC concentration incubated for 1 hr measured after 1:1000 dilution by viable plate count method; format: functional
# [27] = tested on: Staphylococcus aureus; experiment: Antibacterial activity against vancomycin-sensitive methicillin-resistant Staphylococcus aureus assessed as post antibiotic effect at 10 times MIC concentration incubated for 1 hr measured after 1:1000 dilution by viable plate count method; format: functional
# [28] = tested on: Klebsiella pneumoniae; experiment: Antibacterial activity against Klebsiella pneumoniae by macrodilution method; format: functional
# [29] = tested on: Haemophilus influenzae; experiment: Antibacterial activity against beta-lactamase deficient and ampicillin-resistant Haemophilus influenzae by macrodilution method; format: functional
# [30] = tested on: Enterobacter cloacae; experiment: Antibacterial activity against Enterobacter cloacae assessed as post-antibiotic sub-MIC effect at 0.4 times MIC concentration pretreated with 10 times MIC concentration for 1 hr followed by 1:1000 dilution by viable plate count method; format: functional
# [31] = tested on: Acinetobacter baumannii; experiment: Antibacterial activity against multidrug-resistant Acinetobacter baumannii producing OXA-24 and OXA-51 beta-lactamases assessed as post-antibiotic sub-MIC effect at 0.4 times MIC concentration pretreated with 10 times MIC concentration for 1 hr followed by 1:1000 dilution by viable plate count method; format: functional
# [32] = tested on: Escherichia coli; experiment: Antibacterial activity against Escherichia coli assessed as post antibiotic effect; format: functional
# [33] = Drug level in patient serum at 100 mg, iv followed by 50 mg every 12 hrs after 60 mins post dose; format: ADME, organism-based; conditions: human, read-out: Drug uptake
# [34] = tested on: Escherichia coli; experiment: Antibacterial activity against Escherichia coli assessed as post-antibiotic sub-MIC effect at 0.4 times MIC concentration pretreated with 10 times MIC concentration for 1 hr followed by 1:1000 dilution by viable plate count method; format: functional
smiles,measurement,setting,value
CN(C)c1cc(NC(=O)CNC(C)(C)C)c(O)c2c1C[C@H]1C[C@H]3[C@H](N(C)C)C(O)=C(C(N)=O)C(=O)[C@@]3(O)C(O)=C1C2=O [TIGECYCLINE],MIC,[1],0.06 µg/mL
same,PAE,[2],5.6 h
same,PAE,[3],2.4 h
same,PAE,[4],5.2 h
same,PAE,[5],8.8 h
same,PAE,[6],5.2 h
same,PAE,[7],4.9 h
same,PAE,[8],9.9 h
same,PAE,[9],2.2 h
same,PAE,[10],2 h
same,PAE,[11],7.7 h
same,PAE,[12],1.9 h
same,PAE,[13],1.9 h
same,PAE,[14],9 h
same,PAE,[15],6.9 h
same,PAE,[16],8.2 h
same,PAE,[17],9.8 h
same,PAE,[18],6.8 h
same,PAE,[19],0.4 h
same,PAE,[20],2 h
same,PAE,[21],2.9 h
same,PAE,[22],1.2 h
same,PAE,[23],1.7 h
same,PAE,[24],6 h
same,PAE,[25],3.9 h
same,PAE,[26],4 h
same,PAE,[27],3.2 h
same,MIC,[28],0.25 µg/mL
same,MIC,[29],0.06 µg/mL
same,PAE,[30],7.2 h
same,PAE,[31],3.8 h
same,PAE,[32],2 h
same,concentration at 1 h,[33],600 ng/mL
same,PAE,[34],3.5 h
